Source: patent US4300011A, “Selective production of aromatics” (Mobil Oil Corporation, priority 1980, dated 1981)

Columns and labels:
[1] = Effective critical dimension from CPK space-filling atomic models; type: physicochemical
Source text: The concept of an "effective critical dimension" of a molecule is described by Breck on pages 633 to 641 in Zeolite Molecular Sieves, John Wiley & Sons, Inc. (1974), the entire contents of which are incorporated herein by reference. Generally, this dimension is the smallest dimension that will permit passage through the pores of the zeolite, i.e., the dimension that most nearly approaches the pore size of the zeolite. For example, the critical dimension of n-hexane is the thickness not the length, while the critical dimension for benzene is the cross-sectional diameter, rather than the thickness.
Effective critical dimensions for the purposes of this invention were determined by the use of CPK (Corey-Pauling-Koltun) space-filling atomic models, obtained from Ealing Corporation, Natick, Mass. The following Table illustrates critical dimensions measured from such models with corresponding pKa values for several heterocyclic compounds.

[2] = cited from earlier work; for pKa: from Katritzky, Physical Methods in Heterocyclic Chemistry

Compound | Effective Critical Dimension [1] | pKa [2] | relative base strength ([2]; versus 1,10-phenanthroline)
c1cnc2c(c1)ccc1cccnc12 [1,10-Phenanthroline] | 7.5 Angstroms |  | 
Cc1cc(C)nc(C)c1 [2,4,6-Collidine, 2,4,6-trimethylpyridine] | 7.5 Angstroms |  | 
Cc1cc(C)c2cccc(C)c2n1 [2,4,8-Trimethylquinoline] | 7.9 Angstroms | 4.5 | 
Cc1cc(C)c2ccccc2n1 [2,4-Dimethylquinoline] | 7.5 Angstroms | 5.1 | 
Cc1cccc(C)n1 [2,6-Lutidine] | 6.6 Angstroms | 6.8 | 
Cc1ccncc1C [3,4-Lutidine, 3,4-dimethylpyridine] | 7.0 Angstroms | 6.5 | 
Cc1ccnc2c(C)cccc12 [4,8-Dimethylquinoline] | 7.4 Angstroms |  | 
Cc1ccnc2ccccc12 [4-Methylquinoline] | 7.3 Angstroms | 5.2 | 
c1ccc2c(c1)ccc1ncccc12 [5,6-Benzoquinoline] | 7.5 Angstroms |  | slightly stronger base than 1,10-phenanthroline
c1ccc2c(c1)ccc1cccnc12 [7,8-Benzoquinoline] | 7.5 Angstroms |  | 
c1ccc(-c2ccnc3c2ccc2c(-c4ccccc4)ccnc23)cc1 [Bathophenanthroline, 4,7-diphenyl-1,10-phenanthroline] | 9.5 Angstroms |  | 
Cc1ccc2ccc3ccc(C)nc3c2n1 [Neocuproine, 2,9-dimethyl-1,10-phenanthroline] | 8.3 Angstroms |  | 
Cc1nc(C)c(C)c(C)c1C [Pentamethylpyridine] | 7.7 Angstroms |  | 
c1ccncc1 [Pyridine, reference compound] | 6.2 Angstroms |  | 
